Assay: Body weight in the hairless rat study
Format: in vivo, hairless rats
Protocol: To do this Calcitriol was used as the reference product at 0.01% and compound A was used as the test product at 1% and 0.1% (100 μg/cm^2 and 10 μg/cm^2, respectively). A Control Group was included, administered only with the vehicle (absolute ethanol).
The treatments were administered topically, once a day for 10 days (100 μg/side/animal). The animals were weighed on a daily basis throughout the study and the grade of erythema was evaluated (0=Absence of erythema, 1=Low grade erythema, 3=High grade erythema). On the last day of the study, day 11, the amount of corneous material extracted from the epidermis of the animals was evaluated.

Structure (SMILES): C=C1C(=O)O[C@H](CCc2ccc(OC)cc2)[C@@H]1C [Compound A]
- Body weight (Compound A 0.1% topical once a day, Baseline): 0.0 ± 0.00 g
- Body weight (Compound A 0.1% topical once a day, Day 2): 0.0 ± 0.00 g
- Body weight (Compound A 0.1% topical once a day, Day 3): 0.0 ± 0.00 g
- Body weight (Compound A 0.1% topical once a day, Day 4): 0.0 ± 0.00 g
- Body weight (Compound A 0.1% topical once a day, Day 5): 0.0 ± 0.00 g
- Body weight (Compound A 0.1% topical once a day, Day 6): 0.0 ± 0.00 g
- Body weight (Compound A 0.1% topical once a day, Day 7): 0.0 ± 0.00 g
- Body weight (Compound A 0.1% topical once a day, Day 8): 0.0 ± 0.00 g
- Body weight (Compound A 0.1% topical once a day, Day 9): 0.0 ± 0.00 g
- Body weight (Compound A 0.1% topical once a day, Day 10): 0.0 ± 0.00 g
- Body weight (Compound A 0.1% topical once a day, Day 11): 0.0 ± 0.00 g
- Body weight (Compound A 1% topical once a day, Baseline): 0.0 ± 0.00 g
- Body weight (Compound A 1% topical once a day, Day 2): 1.0 ± 0.00 g
- Body weight (Compound A 1% topical once a day, Day 3): 1.0 ± 0.00 g
- Body weight (Compound A 1% topical once a day, Day 4): 1.2 ± 0.11 g
- Body weight (Compound A 1% topical once a day, Day 5): 1.3 ± 0.17 g
- Body weight (Compound A 1% topical once a day, Day 6): 1.5 ± 0.22 g
- Body weight (Compound A 1% topical once a day, Day 7): 1.5 ± 0.22 g
- Body weight (Compound A 1% topical once a day, Day 8): 1.2 ± 0.40 g
- Body weight (Compound A 1% topical once a day, Day 9): 0.9 ± 0.15 g
- Body weight (Compound A 1% topical once a day, Day 10): 0.9 ± 0.15 g
- Body weight (Compound A 1% topical once a day, Day 11): 1.2 ± 0.17 g

From US20090149531A1, “CHEMICAL COMPOSITION DERIVED FROM P-HYDROXYPHENYL PROPIONIC ACID FOR THE TREATMENT OF PSORIASIS” (APOTEKNOS PARA LA PIEL, S.L., priority 2007, published 2009)
